Results on 19 molecules are retold here after patent US8835440B2, “Cyclic pyrimidin-4-carboxamides as CCR2 receptor antagonists for treatment of inflammation, asthma and COPD” (Boehringer Ingelheim International GmbH, priority 2008, dated 2014).

Structures are written as SMILES.

The first test concerns the target T1, CCR2 (Homo sapiens, UniProt P41597).
T1 construct: Membranes were prepared from THP-1 cells; endogenous in cells; host or cells: THP-1 cells (membrane preparation)
T1 sequence (P41597 1-360 isoform P41597-2): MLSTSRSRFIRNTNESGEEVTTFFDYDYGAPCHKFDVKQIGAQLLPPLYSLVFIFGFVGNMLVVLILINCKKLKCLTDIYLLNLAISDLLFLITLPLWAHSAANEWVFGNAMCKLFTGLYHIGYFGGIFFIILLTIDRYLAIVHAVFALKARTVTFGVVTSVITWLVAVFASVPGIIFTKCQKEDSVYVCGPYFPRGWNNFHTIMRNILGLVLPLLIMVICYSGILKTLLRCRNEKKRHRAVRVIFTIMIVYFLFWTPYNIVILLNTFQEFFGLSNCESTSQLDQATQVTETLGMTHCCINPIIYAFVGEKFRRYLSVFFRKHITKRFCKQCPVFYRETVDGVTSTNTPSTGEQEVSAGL
Briefly: CCR2 receptor membrane binding assay ([125I]MCP-1, THP-1 cell membranes, SPA beads). The settings on record: @ 10 μM test compound; THP-1 membranes; read-out: CCR2 % ctrl @ 10 μM. As to the method: The above exemplary substances have been tested for binding to CCR2 using a binding assay as outlined herein below:
THP-1 cells (human acute monocytic leukaemia cells) were cultured under standardized conditions at 37° C. and 5% CO2 in a humidified incubator. THP-1 cells were cultivated in RPMI 1640 medium (Gibco 21875) containing 1% MEM-NEAA (Gibso 11140) 2 mM L-glutamine, 1.5 g/L sodium bicarbonate, 4.5 g/L glucose, 10 mM HEPES and 1.0 mM sodium pyruvate, 90%; 10% fetal calf serum (FCS Gibco 10500-064).
Membranes were prepared from THP-1 cells. THP-1 cells were centrifuged at 300×g at 4° C. for 10 min. The cell pellet was resuspendet in Phosphate Buffer Saline (PBS, including 10 μM Pefabloc and a protease inhibitor mix ‘complete’, Boehringer Mannheim (1 tablet/50 ml)), to a concentration of […]. The membrane preparation was performed by disrupting the cells by nitrogen […] (at 50 bar, for 1 h) in a “Nitrogen Bombe” (Parr Instrument). Cell debris was removed by centrifugation (800×g at 4° C., 1 min). The supernatant was centrifuged at 80000×g, 4° C. for 30 min to sediment the cell membranes. Usually 50 mg of protein (Bradford assay) were yielded from 1×10E9 cells. The membranes were resuspendet in 25 mM HEPES, 25 mM MgCl2, 1 mM CaCl2, 10% Glycerine for storage in aliquots at −80° C. in 25 mM HEPES, 25 mM MgCl2, 1 mM CaCl2, 10% Glycerine and stored at −80° C.
Receptor Membrane Binding Assay:
Perkin Elmer NEX 332 Jod 125 MCP-1, Stock: 2200 Ci/mmol solved in 2000 μl assay buffer, stored at −20° C. THP-1 membrane were adjusted with 25 mM HEPES, pH 7.2; 5 mM MgCl2; 0.5 mM CaCl2; 0.2% BSA assay buffer to a concentration of […]. Amersham Biosciences PVT-WGA Beads (RPNQ0001) were adjusted with assay buffer to a concentration of 0.24 mg/30 μl. For preparation of the membrane-bead-suspension membranes and beads were incubated for 30 min at RT under rotation (60 rpm) with a ratio of 1:2. Test compounds dissolved in 100% DMSO to a concentration of 10 mM and are further diluted with 100% DMSO to 1 mM. All additional compound dilutions were obtained with assay buffer, final 1% DMSO. Compounds, membrane-bead-suspension and [125I]MCP-1 (ca. 25000 cpm/10 μl) were incubated. Bound radioactivity was determined by scintillation counter after 8 h. Determination of affinity of test compounds (dissociation constant hKi) is calculated by iterative fitting of experimental data using the “easy sys” program, which is based on law of mass action (Schittkowski K. (1994), Numerische Mathematik, Vol. 68, 129-142).
Consider `Cc1c(NCc2ccc(C(C)(C)C)cc2)ncnc1C(=O)N1CCC(N2CCC(N(C)S(C)(=O)=O)CC2)CC1` [Example 1], for which the remaining activity at 10 µM worked out at 1%.

`Cc1c(NCCc2ccc(Cl)c(Cl)c2)ncnc1C(=O)N1CCC(N2CCCCC2)CC1` [Example 2]: the remaining activity at 10 µM was found to be 13%.

On to `Cc1c(NCCc2ccc(Cl)c(Cl)c2)ncnc1C(=O)N1CCC(N2CCC(O)CC2)CC1` [Example 3], for which the remaining activity at 10 µM is 14%.

`Cc1c(NCc2cccc(C(F)(F)F)c2)ncnc1C(=O)N1CCC(N2CCC(O)CC2)CC1` [Example 4]: the remaining activity at 10 µM was 43%.

As for `Cc1c(NCc2ccc(OC(F)(F)F)cc2)ncnc1C(=O)N1CCC(N2CCC(O)CC2)CC1` [Example 5], the remaining activity at 10 µM worked out at 26%.

Consider `Cc1c(NCc2cc(F)cc(C(F)(F)F)c2)ncnc1C(=O)N1CCC(N2CCC(O)CC2)CC1` [Example 6], for which the remaining activity at 10 µM is 41%.

`Cc1c(NCc2ccc(C(C)(C)C)cc2)ncnc1C(=O)N1CCC(N2CCC(O)CC2)CC1` [Example 7]: the remaining activity at 10 µM was 16%.

In the case of `Cc1c(NCc2cccc(OC(F)(F)F)c2)ncnc1C(=O)N1CCC(N2CCC(O)CC2)CC1` [Example 8], the remaining activity at 10 µM amounted to 36%.

Take `Cc1c(NCc2ccc(C(F)(F)F)cc2)ncnc1C(=O)N1CCC(N2CCC(O)CC2)CC1` [Example 9]: the remaining activity at 10 µM was found to be 32%.

In the case of `Cc1c(NCc2ccc(C(F)(F)F)c(F)c2)ncnc1C(=O)N1CCC(N2CCC(O)CC2)CC1` [Example 10], the remaining activity at 10 µM stood at 27%.

On to `Cc1c(NCCc2cccc(C(F)(F)F)c2)ncnc1C(=O)N1CCC(N2CCC(O)CC2)CC1` [Example 11], for which the remaining activity at 10 µM stood at 38%.

Turning to `Cc1c(NCCc2ccc(C(F)(F)F)cc2)ncnc1C(=O)N1CCC(N2CCC(O)CC2)CC1` [Example 12], the remaining activity at 10 µM was determined as 29%.

As for `Cc1c(NCC2CCC(C(F)(F)F)CC2)ncnc1C(=O)N1CCC(N2CCC(O)CC2)CC1` (centres unmarked) [Example 13], the remaining activity at 10 µM was determined as 42%.

Consider `Cc1c(NCCc2ccc(OC(F)(F)F)cc2)ncnc1C(=O)N1CCC(N2CCC(O)CC2)CC1` [Example 14], for which the remaining activity at 10 µM stood at 22%.

On to `Cc1c(NCCCCc2ccccc2)ncnc1C(=O)N1CCC(N2CCC(O)CC2)CC1` [Example 15], for which the remaining activity at 10 µM turned out to be 14%.

Regarding `Cc1c(NCCOc2ccccc2)ncnc1C(=O)N1CCC(N2CCC(O)CC2)CC1` [Example 16], the remaining activity at 10 µM worked out at 40%.

Take `Cc1c(NCCCc2ccccc2)ncnc1C(=O)N1CCC(N2CCC(O)CC2)CC1` [Example 17]: the remaining activity at 10 µM was 18%.

Regarding `Cc1c(NCCOCc2ccccc2)ncnc1C(=O)N1CCC(N2CCC(O)CC2)CC1` [Example 18], the remaining activity at 10 µM was 52%.

With `Cc1c(NCC2COc3ccccc3C2)ncnc1C(=O)N1CCC(N2CCC(O)CC2)CC1` (centres unmarked) [Example 19], the remaining activity at 10 µM worked out at 40%.

The same test, now with this note: dissociation constant hKi; [125I]MCP-1 binding to THP-1 membranes.
As a reminder, the Ki is a dissociation constant, usually derived from enzyme kinetics or from competition with a known ligand. A lower Ki goes with tighter binding. In the case of `Cc1c(NCc2ccc(C(C)(C)C)cc2)ncnc1C(=O)N1CCC(N2CCC(N(C)S(C)(=O)=O)CC2)CC1` [Example 1], the inhibition constant (Ki) came to 32 nM.

The molecule `Cc1c(NCCc2ccc(Cl)c(Cl)c2)ncnc1C(=O)N1CCC(N2CCCCC2)CC1` [Example 2] registered a Ki of 222 nM.

`Cc1c(NCCc2ccc(Cl)c(Cl)c2)ncnc1C(=O)N1CCC(N2CCC(O)CC2)CC1` [Example 3]: the Ki came out at 204 nM.

As for `Cc1c(NCc2cccc(C(F)(F)F)c2)ncnc1C(=O)N1CCC(N2CCC(O)CC2)CC1` [Example 4], the Ki came out at 1590 nM.

Turning to `Cc1c(NCc2ccc(OC(F)(F)F)cc2)ncnc1C(=O)N1CCC(N2CCC(O)CC2)CC1` [Example 5], the Ki is 616 nM.

Regarding `Cc1c(NCc2cc(F)cc(C(F)(F)F)c2)ncnc1C(=O)N1CCC(N2CCC(O)CC2)CC1` [Example 6], the Ki was 1930 nM.

With `Cc1c(NCc2ccc(C(C)(C)C)cc2)ncnc1C(=O)N1CCC(N2CCC(O)CC2)CC1` [Example 7], the Ki came out at 306 nM.

Consider `Cc1c(NCc2cccc(OC(F)(F)F)c2)ncnc1C(=O)N1CCC(N2CCC(O)CC2)CC1` [Example 8], for which the Ki worked out at 1020 nM.

As to `Cc1c(NCc2ccc(C(F)(F)F)cc2)ncnc1C(=O)N1CCC(N2CCC(O)CC2)CC1` [Example 9], the affinity corresponds to a Ki of 974 nM.

In turn, `Cc1c(NCc2ccc(C(F)(F)F)c(F)c2)ncnc1C(=O)N1CCC(N2CCC(O)CC2)CC1` [Example 10] registered a Ki of 650 nM.

Take `Cc1c(NCCc2cccc(C(F)(F)F)c2)ncnc1C(=O)N1CCC(N2CCC(O)CC2)CC1` [Example 11]: the affinity corresponds to a Ki of 1710 nM.

Consider `Cc1c(NCCc2ccc(C(F)(F)F)cc2)ncnc1C(=O)N1CCC(N2CCC(O)CC2)CC1` [Example 12], for which the Ki is 664 nM.

`Cc1c(NCC2CCC(C(F)(F)F)CC2)ncnc1C(=O)N1CCC(N2CCC(O)CC2)CC1` (centres unmarked) [Example 13] came in with a Ki of 1330 nM.

The molecule `Cc1c(NCCc2ccc(OC(F)(F)F)cc2)ncnc1C(=O)N1CCC(N2CCC(O)CC2)CC1` [Example 14] yielded a Ki of 387 nM.

`Cc1c(NCCCCc2ccccc2)ncnc1C(=O)N1CCC(N2CCC(O)CC2)CC1` [Example 15] yielded a Ki of 200 nM.

`Cc1c(NCCOc2ccccc2)ncnc1C(=O)N1CCC(N2CCC(O)CC2)CC1` [Example 16]: affinity was put at a Ki of 1900 nM.

As to `Cc1c(NCCCc2ccccc2)ncnc1C(=O)N1CCC(N2CCC(O)CC2)CC1` [Example 17], the Ki was found to be 302 nM.

Molecule `Cc1c(NCCOCc2ccccc2)ncnc1C(=O)N1CCC(N2CCC(O)CC2)CC1` [Example 18] gave a Ki of 3500 nM.

The molecule `Cc1c(NCC2COc3ccccc3C2)ncnc1C(=O)N1CCC(N2CCC(O)CC2)CC1` (centres unmarked) [Example 19] came in with a Ki of 269 nM.
